Assay results taken from paper PMC11466185, “Mechanisms and efficacy of small molecule latency-promoting agents to inhibit HIV reactivation ex vivo” (JCI Insight, 2024).
Several values for one entry are separate records, joined by “and”; a condition that tells them apart may be missing. Equal entries are not always repeated.

How the values were obtained:
[1] = tested on: HIV transcripts (TAR, LLTR, Pol, PolyA, TatRev); assay: Cell-associated HIV transcripts (RT-ddPCR) 6 days after anti-CD3/CD28 activation of PBMCs from ART-suppressed PWH; type: cell-based; settings: for Pol / PolyA / TAR / TatRev: DMSO αCD3/28 = 100, Fig 4A; for LLTR/TAR / PolyA/LLTR / TatRev/PolyA: DMSO+CD3/28 = 1, Fig 4B, C and D
Procedure: (§1) Next, we evaluated the ability of the candidate LPAs to sustain the inhibitory effects during a prolonged ex vivo culture. To this end, PBMCs were cultured in the presence of individual drugs in DMSO or in DMSO alone as control, activated (anti-CD3/CD28), and harvested after 6 days. […] However, we decided to test the drug on day 6 because extra cells were available from some study participants.
Each drug was tested in PBMCs from at least 6 ART-suppressed study participants (except for KRIBB11, n = 5). PBMCs were aliquoted into wells at 6 × 10^6 cells/well. After activation, the cells were cultured with antiretrovirals in the presence of individual drugs in DMSO or DMSO alone as control. All conditions were tested in the presence of CD3/28 T cell–activating beads, except for the unactivated DMSO condition. After 6 days, total cellular RNA was extracted, and the progression through different stages of HIV transcription was quantified by measuring the levels of initiated (TAR), 5′ elongated (LLTR), midtranscribed/unspliced (Pol), completed (PolyA), and multiply spliced (TatRev) HIV transcripts. (A) The levels of all HIV transcripts were normalized to 1 μg of total cellular RNA and expressed as a percentage of the activated DMSO control (% of activated DMSO). Medians are shown as well as the individual values per study participant in different colors. (B–D) The effect of each drug on HIV transcriptional progression after activation was analyzed by the ratio of one HIV transcript to another. Ratios are independent of HIV infection frequency or normalization to cell numbers. Shown are the proportion of (B) all HIV transcripts that are elongated (LLTR/TAR), (C) elongated HIV transcripts that are completed (PolyA/LLTR), and (D) completed transcripts that are multiply spliced (TatRev/PolyA). Medians and IQR are presented, along with the individual values per study participant in different colors. P values were calculated using Wilcoxon’s signed-rank test: *P < 0.05.
PBMCs were isolated from fresh venous blood from 16 ART-suppressed HIV-infected study participants using Ficoll density gradient centrifugation. The cells were seeded at 6 × 10^6 cells/well and cultured with antiretrovirals (nevirapine and indinavir) to prevent new infection. On the next day, PBMCs were activated with anti-CD3/CD28–coated beads (Invitrogen) in the presence of 20 U/mL IL-2 and individual drugs in DMSO or DMSO alone as a control. Since we were limited in the PBMC yield per study participant, different study participants were used for different experiments (such as the initial screen, dose response, different time points, and studies in activated vs. unstimulated cells). In addition, the yields of PBMCs were sometimes insufficient to test all drugs for a given question or experiment.
(§2) For quantification of cell-associated HIV transcripts, PBMCs were harvested either after 24 hours or after 6 days. The cell viabilities were measured by trypan blue staining; then the cells were pelleted by centrifuging at 300g for 6 minutes and stored at –80°C. For quantification of virion-associated HIV RNA, cell culture supernatant was collected from 6 × 10^6 PBMCs that were treated and activated for 6 days as described above. Residual cells and cellular debris were subsequently removed from the supernatant by differential centrifugation (300g for 6 minutes, then 20,000g for 10 minutes), and the supernatant was stored at –80°C.
Total cellular DNA and RNA were extracted in parallel using Trireagent (Molecular Research Center) according to the manufacturer’s instructions, except for study participants 2147 and 2461 (Figure 4), for whom DNA and RNA were extracted using the QIAGEN AllPrep DNA/RNA/miRNA Universal Kit with on-column DNase I treatment of the RNA and the manufacturer’s modification to enhance recovery of short transcripts.

PBMCs = type: cell-based, human; settings: 10nM; 6 days after αCD3/28 activation; each row one participant
Procedure: as §1, §2
A) After six days, the viability was measured by trypan blue staining and then normalized to the levels of the activated DMSO (% of activated DMSO). Bars indicate medians and different colors indicate individual study participants. B-F) Each drug was tested in PBMCs from at least six ART-suppressed study participants (except for KRIBB11, n=5) and the PBMCs were aliquoted into wells at 6x10^6 cells/well. After activation, the cells were cultured with antiretrovirals in the presence of individual drugs in DMSO or DMSO alone as control. After six days, total RNA was extracted and the progression through different stages of HIV transcription was (1 picture or pasted object on this page, not shown here)

pladienolide B
LLTR HIV transcripts (DMSO αCD3/28 = 100) ([1]; 10nM, 6 days after αCD3/28 activation, each column one participant): 48.15 and 112.06 and 64.44 and 97.37 and 80.45 and 82.86
Pol ([1]; participant 2027): 56.14
PolyA ([1]; participant 2027): 45.13
TAR ([1]; participant 2027): 270.3
TatRev ([1]; participant 2027): 0
LLTR/TAR ([1]; participant 2027): 0.3065
PolyA/LLTR ([1]; participant 2027): 0.5447
TatRev/PolyA ([1]; participant 2027): 0
Pol ([1]; participant 2147a): 74.51
PolyA ([1]; participant 2147a): 38.34
TAR ([1]; participant 2147a): 177.4
TatRev ([1]; participant 2147a): 22.95
LLTR/TAR ([1]; participant 2147a): 0.2714
PolyA/LLTR ([1]; participant 2147a): 0.7963
TatRev/PolyA ([1]; participant 2147a): 0.342
Pol ([1]; participant 2161): 44.19
PolyA ([1]; participant 2161): 152.38
TAR ([1]; participant 2161): 52.78
TatRev ([1]; participant 2161): 381.82
LLTR/TAR ([1]; participant 2161): 1.5241
PolyA/LLTR ([1]; participant 2161): 1.89
TatRev/PolyA ([1]; participant 2161): 2.506
PolyA ([1]; participant 2461): 53.85
TAR ([1]; participant 2461): 91.45
LLTR/TAR ([1]; participant 2461): 1.065
PolyA/LLTR ([1]; participant 2461): 0.553
Pol ([1]; participant 2747): 21.03
PolyA ([1]; participant 2747): 65.33
TAR ([1]; participant 2747): 95.91
TatRev ([1]; participant 2747): 0
TatRev/PolyA ([1]; participant 2747): 0
Pol ([1]; participant 2750): 212.24
PolyA ([1]; participant 2750): 74.85
TAR ([1]; participant 2750): 108.21
TatRev ([1]; participant 2750): 155
LLTR/TAR ([1]; participant 2750): 1.036
PolyA/LLTR ([1]; participant 2750): 0.668
TatRev/PolyA ([1]; participant 2750): 2.0707
Cell viability (DMSO αCD3/28 = 100) (PBMCs): 115.2 and 113.39 and 90.65 and 128.6 and 121.6 and 94.2 and 112.8
